The data set can be described thus: systemic availability study in dogs, testosterone, RIA method (Example 40). Particulars: female, bred hound, dog, plasma, other: buccal (film disc applied to the buccal mucosa), 0.8 mg per disc, mean of three dogs, buccal ½ inch disc of Example 39 film, 0.8 mg testosterone per disc, read-out: systemic plasma level, Mean. The format is in vivo. The source says:
The films obtained via Examples 38 and 39 are die-cut in ½ inch diameter discs to be characterized and to be used for a systemic availability study in three dogs (20-25 kg spayed female bred hounds). One disc of the film to be evaluated is applied to the inside of the mouth on the buccal mucosa. A slight pressure is applied for 10 seconds. Then, the oral cavity is examined to assure adherence of the film to the mucosa and over the course of the study, to monitor the erosion of the discs. Using an indwelling jugular catheter, blood samples are collected at specific intervals. The serum is characterized by an ELISA assay in the case of albuterol sulfate and by an RIA method for the testosterone study.
After application of ½ inch diameter discs, systemic plasma levels obtained at different intervals are given in nanograms per milliliter for the mean of the three dogs.

Molecules are shown by their SMILES.

Take `C[C@]12CC[C@H]3[C@@H](CCC4=CC(=O)CC[C@@]43C)[C@@H]1CC[C@@H]2O` [testosterone]: the concentration at 0 min (time 0 minutes) was found to be 0 ng/mL. The concentration at 5 min (time 5 minutes) stood at 2.21 ng/mL. For the same molecule, the concentration at 10 min (time 10 minutes) is 4.68 ng/mL. In addition, the concentration at 15 min (time 15 minutes) came to 3.81 ng/mL. Also, the concentration at 30 min (time 30 minutes) was determined as 2.87 ng/mL. Besides, the concentration at 60 min (time 60 minutes) came out at 3.73 ng/mL. For the same molecule, where the note is “time 90 minutes”, the concentration at 90 min was determined as 4.82 ng/mL. For the same molecule, for the setting “time 120 minutes”, the concentration at 120 min amounted to 7.14 ng/mL. Moreover, the concentration at 150 min (time 150 minutes) is 3.2 ng/mL. Besides, under “time 180 minutes”, the concentration at 180 min turned out to be 0.62 ng/mL. In addition, the concentration at 240 min (time 240 minutes) is 0.18 ng/mL. Also, the concentration at 360 min (time 360 minutes) was found to be 0.12 ng/mL. Where the note is “time 480 minutes”, the concentration at 480 min worked out at 0.02 ng/mL. In addition, the concentration at 720 min (time 720 minutes) was 0.01 ng/mL.
